Laboratory results reported in article PMC6934657, “Transdermal delivery of nobiletin using ionic liquids” (Scientific Reports, 2019).
Converted amounts (≈) assume the structure as drawn.

Tests used:
[1] = cited from earlier work
[2] = Measurement of NOB solubility in CAGE; type: physicochemical; conditions: shaken at 37 °C for 48 h, HPLC
Experimental: An excess amount of NOB was added to CAGE in test tubes and the tubes were shaken at 37 °C for 48 h. The supernatants were then collected and filtered through a filter with a pore size of 0.20 µm (Toyo Roshi Co. Ltd., Tokyo, Japan), and the concentration of NOB was determined by high-pressure liquid chromatography (HPLC) (Shimadzu LC-2010C, Kyoto, Japan) with the following conditions: mobile phase 0.1% formic acid in water (solvent A) and acetonitrile (solvent B) (0–20 min, 52.5–75% solvent A); flow rate 1 mL/min; injection volume 5 µL; column Develosil ODS-HG-5, 4.6 mm × 150 mm, 5 µm particle size; column temperature 40 °C; UV detector wavelength 285 nm.

[3] = set-up: method as in PMID 27076076; conditions: oral, 200 mg/kg; cited from earlier work
[4] = cited from earlier work; remark: listed apart in the source
blood glucose level [5] = experiment: Hypoglycemic activity after transdermal administration to SD rats; type: in vivo; conditions: transdermal with CAGE, 10 mg/kg
Experimental: The hypoglycemic activity of the NOB/CAGE sample was evaluated following the same protocol used for the transdermal tests in vivo using SD rats as described in Section 2.4. A 5 mg/mL solution of PBS, NOB/PBS, or NOB/CAGE was transdermally administered to the donor area of the rats (10 mg/kg) and blood was collected from the tail vein after 1, 2, 4, 8, 12, and 24 h. Blood glucose was measured using a commercial glucose meter (ACCU-CHEK® ST Meter, ACCU-CHEK® ST Strip, Roche Diagnostics K.K., Tokyo, Japan) (n = 5).

[6] = In vitro skin penetration test using Franz diffusion cell; type: in vitro ADME, Yucatan micropig; conditions: 24 h
Experimental: Porcine skin stored at −70 °C was thawed at 37 °C for 30 min, and then cut into a circle 3.5 cm in diameter. The adipose tissue of this skin was scraped off with a razor. The skin was sandwiched between the acceptor side of a Franz diffusion cell (FDC) (PermeGear, Hellertown, PA, USA) filled with phosphate buffered saline (PBS) solution, and the donor of the FDC, and both sides of the FDC were fixed with a clip. The skin was stretched without wrinkles and the acceptor was degassed. Then, 300 μL of 1, 2, 5, 7, and 10 mg/mL NOB/PBS or NOB/CAGE were added to the donor and incubated for 24 h at 37 °C. After incubation, samples in the donor were removed and the skin was washed up to 5 times with PBS solution. The skin was removed from the FDC and punched out according to the administration area. A tape stripping method was used with ten tapes to obtain parts of the stratum corneum (SC). The remaining epidermis was scraped with a razor and separated from the dermis. NOB was eluted from these tissue samples using methanol: PBS = 1:1 for 24 h. The solutions were centrifuged at 3,000 rpm at 25 °C for 3 min and the supernatant was passed through a membrane filter (pore size: 0.20 µm, Toyo Roshi Co. Ltd.). The amount of NOB in the SC, epidermis, dermis, and acceptor was quantitatively determined by HPLC as described in Section 2.1.2. […] To compare the permeation ability of CAGE with other skin permeation reagents, additional 24-h transdermal tests were performed using 1 mg/mL NOB/diethylene glycol monoethyl ether (DGME): PBS = 1:1 (v:v) and NOB/ethanol (EtOH): […]

blood glucose level [7] = tested on: blood glucose level; set-up: method as in PMID 28337858; conditions: transdermal insulin delivery using CAGE; cited from earlier work
[8] = set-up: method as in doi:10.2525/ecb.56.161, PMID 18951932; conditions: cited from earlier work
[9] = set-up: method as in PMID 30682442; conditions: cited from earlier work

Molecule: COc1ccc(-c2cc(=O)c3c(OC)c(OC)c(OC)c(OC)c3o2)cc1OC [NOB, Nobiletin]
- Solubility of NOB in water ([1]; in water, ref Onoue et al.[11]): 16 µg/mL
- Water solubility ([1]; ref 14 (Fig. 1: Onoue et al.[11])): 16.2 µg/mL
- solubility at 48 h [2]: 7200 µg/mL (≈ 17.9 mM)
- Blood glucose level accompanied with insulin injection [3]: caused a drop in the BGL
- Weight gain [3]: significantly suppressed weight gain
- Oral bioavailability in rat ([4]; oral administration of NOB crystals to rats, ref 14 (Fig. 1: Onoue et al.[11])): 0.85%
- Decrease in the blood glucose level over 12 h (blood glucose level [5]): at most 34%
- Ratio of NOB in deeper fractions (epidermis + dermis + acceptor) to total NOB transferred to the skin ([6]; 1 mg/mL NOB in 50:50 (v:v) DGME: PBS): 41%
- Ratio of NOB in deeper fractions (epidermis + dermis + acceptor) to total NOB transferred to the skin ([6]; 1 mg/mL NOB in 50:50 (v:v) EtOH: PBS): 54%
- Ratio of NOB in deeper fractions (epidermis + dermis + acceptor) to total NOB transferred to the skin ([6]; 1 mg/mL NOB in CAGE): 77%
- Ratio of NOB in deeper fractions (epidermis + dermis + acceptor) to total NOB transferred to the skin ([6]; 1 mg/mL NOB in PBS): 28%
- Order of amount of NOB detected in the acceptor by solvent ([6]; 1 mg/mL NOB): CAGE > EtOH: PBS > PBS > DGME

Molecule: insulin
- Drop in the blood glucose level over 12 h (blood glucose level [7]): ~40%

Molecule: O=c1c(O)c(-c2ccc(O)c(O)c2)oc2cc(O)cc(O)c12 [quercetin, reference compound]
- Solubility in water [1]: 1.4 µg/mL (≈ 0.00463 mM)
- BA in men [8]: 1%

Molecule: COc1ccc(-c2cc(=O)c3c(OC)c(OC)c(OC)c(OC)c3o2)cc1OC [crystalline NOB, Nobiletin]
- Oral BA of crystalline NOB ([4]; oral, 2 mg/kg): 0.46%

Molecule: O=c1c(O)c(-c2ccc(O)cc2)oc2cc(O)cc(O)c12 [kaempferol, reference compound]
- Solubility in water [1]: 180 µg/mL (≈ 0.629 mM)
- BA [9]: 2%
